Literature values, collected in paper PMC7465391, “1,4-Disubstituted 1,2,3-Triazoles as Amide Bond Surrogates for the Stabilisation of Linear Peptides with Biological Activity” (Molecules, 2020).
Where two headings read alike, the source gives them in different places.

Experiments:
[1] = molecular target: cathepsin K
From the text: (§1) Table 7 Sequences of CatS1–2 and CatK1–2 and their reported biological properties. | column: Ki for CatK, pH 5.5 [nM] ^b || The Lalmanach group explored the stabilisation of peptidic inhibitors for cathepsin K and S [99]. These two proteins are cysteine proteases normally present in lysosomes and share a high homology. When found in the extracellular matrix, these enzymes are often overexpressed and dysregulated, making them innovative targets for new therapies for a range of medical conditions. Cathepsin K is considered as a target involved in osteoporosis whereas cathepsin S has been identified to play a role in autoimmune diseases and neuropathic pain [100, 101]. One strategy to identify inhibitors for prot ... || Another set of investigated peptidomimetics was based on a bradykinin-derived substrate, previously reported to be degraded by cathepsin K [103].

[2] = molecular target: cathepsin L
From the text: as §1, with “CatL,” for “CatK,”

Question: What does the source list for “Abz-Arg-Pro-Pro-GlyΨ[Tz]Phe-Ser-Pro-Phe-Arg-Tyr(3-NO2)-NH2 [CatK1, triazolo-peptidomimetic of a bradykinin-derived cathepsin K substrate]”?
Answer: Ki ([1]; reversible inhibition, read-out: Ki cathepsin K): 0.8 µM; Ki ([2]; pH 5.5, 37 °C, substrate Z-Phe-Arg-AMC, mean ± SEM of three experiments, read-out: Ki for CatL, pH 5.5): 22 µM

Question: Which Ki ([1]; pH 5.5, 37 °C, substrate Z-Phe-Arg-AMC, mean ± SEM of three experiments, read-out: Ki for CatK, pH 5.5) does the source give for “Ac-Gly-Arg-Trp-His-Pro-Met-GlyΨ[Tz]Ala-Pro-Trp-Glu-D-Ala-D-Arg-NH2 [CatS1]” here?
Answer: 10 µM

Question: What about the Ki ([2]; reversible inhibition, read-out: Ki cathepsin L) of the same substance?
Answer: 30 µM
